In ChEMBL document CHEMBL5154702, “Synthesis and biological evaluation of aminobenzamides containing purine moiety as class I histone deacetylases inhibitors” (Bioorg Med Chem, 2022):
Calls of active or inactive are those of the source. The rule behind the calls is not given here.

What was measured:
HCT-116 [1] = assay: Induction of cell morphological changes in human HCT-116 cells assessed as cell fragmentation at 0.5 to 5 uM measured after 24 hrs by phase contrast microscopy; type: functional, cell-based; conditions: dose 0.5-5 µM
MDA-MB-231 [2] = assay: Antiproliferative activity against human MDA-MB-231 cells measured after 48 hrs by MTT assay; type: functional, cell-based; conditions: MDA-MB-231, 48 h
Histone deacetylase 1 [3] = target: T1, Histone deacetylase 1 (Homo sapiens, UniProt Q13547); assay: Inhibition of recombinant human full-length C-terminal Flag-His6-tagged HDAC1 (1 to 482 residues) expressed in Sf9 insect cells using fluorogenic HDAC substrate measured after 30 mins by fluorimetry
T1 sequence (Q13547 whole entry, the tested form may be a part): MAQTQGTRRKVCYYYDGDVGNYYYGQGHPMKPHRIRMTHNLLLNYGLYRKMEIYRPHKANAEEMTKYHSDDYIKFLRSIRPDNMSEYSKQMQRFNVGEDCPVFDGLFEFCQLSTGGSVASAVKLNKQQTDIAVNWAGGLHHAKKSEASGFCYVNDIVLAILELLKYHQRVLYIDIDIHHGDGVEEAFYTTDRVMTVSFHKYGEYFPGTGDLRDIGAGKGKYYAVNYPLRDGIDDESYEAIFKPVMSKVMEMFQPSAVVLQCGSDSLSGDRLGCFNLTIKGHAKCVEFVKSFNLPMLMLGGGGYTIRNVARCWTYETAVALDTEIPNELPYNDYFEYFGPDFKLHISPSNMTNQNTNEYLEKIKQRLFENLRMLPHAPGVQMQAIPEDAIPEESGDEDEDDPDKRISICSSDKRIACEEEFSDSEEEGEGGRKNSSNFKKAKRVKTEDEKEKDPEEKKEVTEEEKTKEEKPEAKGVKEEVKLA

HCT-116 [4] = assay: Cell cycle arrest in human HCT-116 cells assessed as down regulation of cyclin D1 expression measured after 24 hrs by Western blot analysis; type: functional, cell-based; conditions: dose 0.1-10 µM, DDE = dose-dependent effect
HCT-116 [5] = assay: Induction of apoptosis in human HCT-116 cells assessed as late apoptotic cells at 0.5 uM measured after 24 hrs by Annexin V-FITC/propidium iodide staining based flow cytometry (reference value: 3.43%); type: functional
HCT-116 [6] = assay: Induction of apoptosis in human HCT-116 cells assessed as viable cells at 5 uM measured after 24 hrs by Annexin V-FITC/propidium iodide staining based flow cytometry (reference value: 87.3%); type: functional; conditions: read-out: Activity
HCT-116 [7] = assay: Cell cycle arrest in human HCT-116 cells assessed as accumulation of cells at G2/M phase at 10 uM measured after 12 hrs by propidium iodide staining based flow cytometry (reference value: 22.74%); type: functional
HCT-116 [8] = assay: Induction of cell morphological changes in human HCT-116 cells assessed as cell shrinkage at 0.5 to 5 uM measured after 24 hrs by phase contrast microscopy; type: functional, cell-based; conditions: dose 0.5-5 µM
HCT-116 [9] = assay: Induction of apoptosis in human HCT-116 cells assessed as necrotic cells at 5 uM measured after 24 hrs by Annexin V-FITC/propidium iodide staining based flow cytometry (reference value: 7.39%); type: functional
HCT-116 [10] = assay: Cell cycle arrest in human HCT-116 cells assessed as down regulation of Bcl-2 expression measured after 24 hrs by Western blot analysis; type: functional, cell-based; conditions: dose 0.1-10 µM, DDE = dose-dependent effect
HCT-116 [11] = assay: Cell cycle arrest in human HCT-116 cells assessed as increase in accumulation of cells at G0/G1 phase measured after 24 hrs by propidium iodide staining based flow cytometry; type: functional; conditions: dose 0.1-10 µM, DDE = dose-dependent effect
HCT-116 [12] = assay: Cell cycle arrest in human HCT-116 cells assessed as down regulation of CDK2 expression measured after 24 hrs by Western blot analysis; type: functional, cell-based; conditions: dose 0.1-10 µM, DDE = dose-dependent effect
HCT-116 [13] = assay: Cell cycle arrest in human HCT-116 cells assessed as accumulation of cells at G2/M phase at 1 uM measured after 24 hrs by propidium iodide staining based flow cytometry (reference value: 22.74%); type: functional
MDA-MB-231 [14] = assay: Potency index, ratio of MS-275 IC50 to test compound IC50 for antiproliferative activity against human MDA-MB-231 cells; type: functional
HCT-116 [15] = assay: Cell cycle arrest in human HCT-116 cells assessed as up regulation of p21 expression at 5 uM by Western blot analysis; type: functional, cell-based; conditions: time 6-48 hrs, TDE = time-dependent effect
HCT-116 [16] = assay: Cell cycle arrest in human HCT-116 cells assessed as up regulation of Bax expression measured after 24 hrs by Western blot analysis; type: functional, cell-based; conditions: dose 0.1-10 µM, DDE = dose-dependent effect
HCT-116 [17] = assay: Cell cycle arrest in human HCT-116 cells assessed as down regulation of CDK2 expression at 5 uM by Western blot analysis; type: functional, cell-based; conditions: time 6-48 hrs, TDE = time-dependent effect
[18] = Intrinsic clearance in rat liver microsomes assessed per mg protein at 13.8 uM by HPLC analysis; type: ADME, Microsome
HCT-116 [19] = assay: Induction of apoptosis in human HCT-116 cells assessed as viable cells at 0.5 uM measured after 24 hrs by Annexin V-FITC/propidium iodide staining based flow cytometry (reference value: 87.3%); type: functional; conditions: read-out: Activity
HCT-116 [20] = assay: Cell cycle arrest in human HCT-116 cells assessed as accumulation of cells at G0/G1 phase at 10 uM measured after 6 hrs by propidium iodide staining based flow cytometry (reference value: 58.05%); type: functional
HCT-116 [21] = assay: Cell cycle arrest in human HCT-116 cells assessed as up regulation of Bax expression at 5 uM by Western blot analysis; type: functional, cell-based; conditions: time 6-48 hrs, TDE = time-dependent effect
HCT-116 [22] = assay: Induction of apoptosis in human HCT-116 cells assessed as early apoptotic cells at 1 uM measured after 24 hrs by Annexin V-FITC/propidium iodide staining based flow cytometry (reference value: 1.87%); type: functional
HCT-116 [23] = assay: Induction of apoptosis in human HCT-116 cells assessed as viable cells at 1 uM measured after 24 hrs by Annexin V-FITC/propidium iodide staining based flow cytometry (reference value: 87.3%); type: functional; conditions: read-out: Activity
HepG2 = assay: cells; type: functional, cell-based; conditions: Homo sapiens, HepG2, 48 h
SGC-7901 = assay: Antiproliferative activity against human SGC-7901 cells measured after 48 hrs by MTT assay; type: functional, cell-based; conditions: SGC-7901, 48 h
HCT-116 [24] = assay: Cell cycle arrest in human HCT-116 cells assessed as accumulation of cells at G0/G1 phase at 10 uM measured after 12 hrs by propidium iodide staining based flow cytometry (reference value: 58.05%); type: functional
[25] = target: Histone deacetylase (Homo sapiens) (UniProt Q13547+O15379+Q9UBN7+Q92769+Q9UQL6+Q8WUI4+Q9BY41+Q96DB2+P56524+Q9UKV0+Q969S8); assay: Potency index, ratio of SAHA IC50 to test compound IC50 for inhibition of HDAC in human HeLa cell nuclear extracts using color de Lys as substrate
HCT-116 [26] = assay: Induction of cell morphological changes in human HCT-116 cells assessed as nuclear fragmentation at 0.5 to 5 uM measured after 24 hrs by Hoechst 33258 staining based fluorescence microscopy; type: functional; conditions: dose 0.5-5 µM
[27] = Half life in human liver microsomes at 13.8 uM by HPLC analysis; type: ADME, Microsome
HCT-116 [28] = assay: Cell cycle arrest in human HCT-116 cells assessed as increase in accumulation of cells at G0/G1 phase at 10 uM by propidium iodide staining based flow cytometry; type: functional; conditions: time 6-24 hrs, TDE = time-dependent effect
HCT-116 [29] = assay: Induction of apoptosis in human HCT-116 cells assessed as early apoptotic cells at 0.5 uM measured after 24 hrs by Annexin V-FITC/propidium iodide staining based flow cytometry (reference value: 1.87%); type: functional
Histone deacetylase = type: cell-based, Homo sapiens; conditions: hela
Histone deacetylase 1 [30] = target: T1, Histone deacetylase 1; assay: Potency index, ratio of MS-275 IC50 to test compound IC50 for inhibition of recombinant human full-length C-terminal Flag-His6-tagged HDAC1 (1 to 482 residues) expressed in Sf9 insect cells
HCT-116 [31] = assay: Induction of apoptosis in human HCT-116 cells assessed as late apoptotic cells at 1 uM measured after 24 hrs by Annexin V-FITC/propidium iodide staining based flow cytometry (reference value: 3.43%); type: functional
[32] = target: Histone deacetylase 1/2/3 (Homo sapiens) (UniProt Q13547+O15379+Q92769); assay: Inhibition of HDAC1/HDAC2/HDAC3 in human HCT-116 cells assessed as increase in accumulation of acetylated H4K5 measured after 24 hrs by Western blot analysis; type: cell-based; conditions: dose 0.1-10 µM, DDE = dose-dependent effect
HCT-116 [33] = assay: Antiproliferative activity against human HCT-116 cells measured after 48 hrs by MTT assay; type: functional, cell-based; conditions: HCT-116, 48 h

CCCCNc1nc(Cl)nc2c1ncn2Cc1ccc(C(=O)Nc2ccccc2N)cc1
Activity (HCT-116 [1]): Active
IC50 (MDA-MB-231 [2]): 380 nM
IC50 (Histone deacetylase 1 [3]): 55.1 nM
Activity (HCT-116 [4]): Dde
Activity (HCT-116 [5]): 2.12%
viability at 5 µM (HCT-116 [6]): 18.4%
Activity (HCT-116 [7]): 18.82%
Activity (HCT-116 [8]): Active
Activity (HCT-116 [9]): 0.902%
Activity (HCT-116 [10]): Dde
Activity (HCT-116 [11]): Dde
Activity (HCT-116 [12]): Dde
Activity (HCT-116 [13]): 15.43%
Ratio IC50 (MDA-MB-231 [14]): 4
Activity (HCT-116 [15]): Tde
Activity (HCT-116 [16]): Dde
Activity (HCT-116 [17]): Tde
CLint [18]: 0.0096 mL/min/mg
viability at 0.5 µM (HCT-116 [19]): 64.3%
Activity (HCT-116 [20]): 65.62%
Activity (HCT-116 [21]): Tde
Activity (HCT-116 [22]): 49.4%
viability at 1 µM (HCT-116 [23]): 40.4%
IC50 (HepG2): 1290 nM
IC50 (SGC-7901): 1520 nM
Activity (HCT-116 [24]): 71.11%
Ratio IC50 [25]: 4
Activity (HCT-116 [26]): Active
half-life at 13.8 µM [27]: 277 min
Activity (HCT-116 [28]): Tde
Activity (HCT-116 [29]): 33.1%
IC50 (Histone deacetylase): 0.0275 µM
Ratio IC50 (Histone deacetylase 1 [30]): 12
Activity (HCT-116 [31]): 8.94%
inhibition [32]: Dde
IC50 (HCT-116 [33]): 500 nM
